Source: patent publication US11529321B2, “Use of aminomethylenecyclohexane-1,3-dione compound” (WIGEN BIOMEDICINE TECHNOLOGY (SHANGHAI) CO., LTD., priority 2017, dated 2022)

target: LC3B (Homo sapiens (Human), UniProt Q9GZQ8); test: Fluorescence polarization assay, GST-LC3B with FITC-labeled peptide
Method: Then the resulting mixture was incubated at 25° C. in the dark.

IC50 | SMILES
100 to 1000 µM | CNC(=O)NC=C1C(=O)CCCC1=O [Compound 25]
15 to 100 µM | O=c1c(=CNc2ccccc2)c(=O)c2cccc3cccc1c32 [Compound 61]
100 to 1000 µM | CN(C)C=C1C(=O)CC2(CC2)CC1=O [Compound 22]
100 to 1000 µM | Cc1n[nH]c(NC=C2C(=O)CC(C)(C)CC2=O)c1-c1ccccc1 [Compound 17]
100 to 1000 µM | Cc1ccc(S(=O)(=O)NNC=C2C(=O)CCCC2=O)cc1 [Compound 26]
15 to 100 µM | O=C1CC(c2ccccc2)CC(=O)C1=CNc1ccccc1 (centres unmarked) [Compound 11, 5-Phenyl-2-((Phenylamino)Methylene)-Cyclohexane-1,3-Dione]

SMILES | IC50
CC1(C)CC(=O)C(=CNCCN2CCN(C(=O)Cc3ccc(F)cc3)CC2)C(=O)C1 [Compound 46] | 100 to 1000 µM
CN(C)C=C1C(=O)CC(c2ccccc2)CC1=O (centres unmarked) [Compound 1, 2-((Dimethylamino)Methylene)-5-Phenyl-Cyclohexane-1,3-Dione] | 3 to 15 µM
